In US20230112444A1, “COMBINATION THERAPIES OF CHIMERIC ANTIGEN RECEPTORS TARGETING B-CELL […] AND GAMMA SECRETASE INHIBITORS” (priority 2020, published 2023):
Read-outs that look alike come from different tables or passages of the source.

Key:
MM.1S cells = assay: Cytolytic activity of BCMA CAR T cells against target cells pre-incubated with PF-03084014; assay type: cell-based, human; conditions: MM.1S target cells pre-incubated with PF-03084014 for 24 hours, then 24 hours co-culture (FIG. 25B)
Method: (§1) In a separate experiment, cytolytic activities of BCMA CAR-T cells were evaluated after the target multiple myeloma cells were first pre-incubated with PF-03084014. FIG. 25A depicts the cell surface expression level of BCMA on the multiple myeloma cell line MM.1S and the BCMA negative control cell line […] after a 24-hour culture in the presence of increasing concentrations of the gamma secretase inhibitor PF-03084014. The data is shown as mean fluorescence intensity (MFI) values of BCMA. FIG. 25B depicts the cytolytic activity of BCMA CAR T cells against MM.1S cells previously treated with PF-03084014 for 24 hours. In the cytolytic assay, BCMA CAR T cells and target cells were co-cultured at different effector to target (E:T) ratios for 24 hours and residual target cell viability was measured using bioluminescence. Results are shown as mean+/−SEM.

gamma secretase [1] = assay: Surface BCMA by flow cytometry / inhibition of gamma secretase activity in MM.1S cells exposed to PF-03084014; assay type: cell-based, human
Method: (§2) The BCMA-expressing multiple myeloma cell lines MM.1S and Molp-8 (ATCC), and the BCMA-negative acute lymphocytic leukemia cell line REH (ATCC) were expanded in RPMI medium containing L-glutamine and 10% FBS in a humidified CO2 incubator set to 37 degrees. The gamma secretase inhibitor (GSI) PF-03084014 (nirogacestat in the hydrobromide salt form, Sigma-Aldrich, #PZ0298) was diluted in H2O at mg/mL and further diluted in cell culture medium as needed. Cells were cultured in the presence of increasing concentrations of PF-03084014 or vehicle (control) in a humidified CO2 incubator set to 37° C. for 4 hours or 24 hours. Cells were then harvested by centrifugation for 5 min at 400×g and stained with a phycoerythrin (PE)-labeled anti-human BCMA antibody (BioLegend, Cat #357504) for 30 min at 4° C. Samples were analyzed by flow cytometry using a Cytoflex flow cytometer (Beckman Coulter) and expression levels of BCMA (mean fluorescence intensity, MFI) were determined using FlowJo version 10.4.1. Fold-change in surface BCMA was calculated as the MFI value of GSI-treated cells divided by the MFI value of cells receiving vehicle control. Maximal (100%) inhibition of gamma-secretase activity was defined as the maximal fold-change in surface BCMA. To obtain half-maximal effective concentration (EC50) values, gMFI was plotted as a function of the logarithm of the concentration of PF-03084014. The data was then fitted using a non-linear regression (four-parameter logistic curve) function and EC50 was calculated using GraphPad.
as §1

[2] = Phase 1 dose-finding study (A8641014) of nirogacestat, minimum concentration; assay type: in vivo, human; conditions: 100 mg BID, solid tumor patients; conversion of ng/mL value
Method: See, e.g., FIG. 22C. […] A dose of 100 mg BID nirogacestat is expected to maintain serum concentrations of nirogacestat at or above the levels required to prevent the cleavage of BCMA by gamma secretase, thereby leading to reduced soluble BCMA and increased membrane-bound BCMA.

BCMA CAR-T cells = assay: Target-dependent BCMA CAR-T cell proliferation in the presence of PF-03084014 (co-culture with REH-BCMA cells); assay type: cell-based, human; conditions: Day 5, up to the highest concentration (FIG. 23)
Text: A BCMA-negative acute lymphocytic leukemia cell line (REH) was genetically modified to overexpress BCMA with the use of a lentiviral vector encoding the human BCMA protein under regulatory control of the EF1alpha promoter (REH-BCMA cells). BCMA-overexpressing cells co-expressing luciferase and green fluorescent protein (GFP) were then created by transducing the cells with a Luc2AGFP/Blasticidin lentiviral vector following the manufacturer's recommendations. The exemplary BCMA CAR tested in the experiments comprises the VH amino acid sequence of SEQ ID NO: 33 and VL amino acid sequence of SEQ ID NO: 34). The BCMA CAR-T cells were generated and cryopreserved as previously described (Sommer et al., Molecular Therapy 2019, 27 (6): 1126-1138), thawed, and used in the assays as follows. Briefly, 5×10^5 CAR^+ T cells were co-cultured with 2×10^6 REH-BCMA cells in 2.5 mL of target cell medium (RPMI with L-glutamine, 10% FBS) without IL-2 using G-Rex 24-well plates. PF-03084014 was added to cells at increasing concentrations whereas the control wells received vehicle. […] On Day 5, cells were counted and the percentage of residual target cells and CAR-T cells were determined by flow cytometry analysis. […] Target-cell dependent proliferation/persistence in the presence or absence of PF-03084014 was determined by dividing the total number of CAR^+ cells by the starting cell number (5×10^5).

[3] = 100 mg BID, solid tumor patients; cited from earlier work
gamma secretase [4] = assay: Surface BCMA by flow cytometry / inhibition of gamma secretase activity in Molp-8 cells exposed to PF-03084014; assay type: cell-based, human
Method: as §2

BCMA-negative REH cells = assay: Surface BCMA by flow cytometry in BCMA-negative REH control cells exposed to PF-03084014; assay type: cell-based, human; conditions: REH negative control cell line, 4-hour treatment
Method: as §2, with “To obtain half-maximal effective concentration (EC50) values, gMFI was plotted as a function of the logarithm of the concentration of PF-03084014.” left out

[5] = test system: MM.1S, Molp-8 and REH-BCMA cells; assay: In vitro cytolytic activity of BCMA CAR-T cells in the presence of PF-03084014 (luciferase); assay type: cell-based, human; conditions: PF-03084014 0.01 μM to 10 μM added during 24 hour co-culture, E:T 1:3, 1:1, 3:1 (FIG. 24)
Method: The multiple myeloma cell lines MM.1S and Molp-8 and the BCMA-overexpressing REH cell line (REH-BCMA cells) were used in these assays. The target cell lines have been modified to constitutively express the luciferase gene which allows assessment of cell viability via luminescence. The cytotoxic activity of BCMA CAR-T cells was determined by measuring the reduction of luminescence signal from live target cells after 24 hour co-culture with BCMA CAR-T cells at increasing effector to target (E:T) ratios (1:3, 1:1, 3:1). Briefly, 2×10^4 luciferase-expressing target cells were co-cultured with BCMA CAR-T cells at defined E:T ratios in target cell culture medium (RPMI with L-glutamine, 10% FBS) without IL-2. The GSI PF-03084014 was added to wells at increasing concentrations (0.01 μM to 10 μM) and cells were cultured in a humidified CO2 incubator set to 37° C. for 24 hours. Following the incubation period, 100 μL of Bright-GLO reagent (Promega) were added and luminescence was read on a luminometer (Spectramax; Molecular Devices). Relative luminescence units (RLU) were converted to percentage of lysed target cells using the formula 100×[1−(RLUtest/RLUcontrol)]. Untreated target cells were used to determine RLU control.

[6] = 4-hour treatment, dose-dependent (FIG. 22A)

## CCC[C@H](N[C@H]1CCc2cc(F)cc(F)c2C1)C(=O)Nc1cn(C(C)(C)CNCC(C)(C)C)cn1 [PF-03084014, nirogacestat]
MM.1S cells
  Effect on cytolytic activity of BCMA CAR T cells: enhanced cytolytic effect
Gamma secretase [1]; [6]
  Levels of BCMA on the cell surface: increased levels of BCMA detected on the cell surface
Gamma secretase [1]; 24 hours incubation (FIG. 25A)
  Levels of BCMA on multiple myeloma cells (MFI): increased levels of BCMA
Gamma secretase [1]; 24 hours treatment (FIG. 22C)
  Inhibition of gamma secretase activity: dose-dependent inhibition of gamma secretase activity
Gamma secretase [1]; 24 hours treatment, flow cytometry of surface BCMA, read-out: EC50 on gamma secretase (surface BCMA) determined using the MM.1S cell line
  EC50: 0.12 nM
[2]
  Minimum concentration (Cmin): approximately 480 nM
BCMA CAR-T cells
  Effect on target-dependent BCMA CAR-T cell expansion: did not negatively affect CAR-T cell expansion
[3]
  Minimum concentration (Cmin): 232 ng/mL
Gamma secretase [4]; [6]
  Levels of BCMA on the cell surface: increased levels of BCMA detected on the cell surface
Gamma secretase [4]; 24 hours treatment (FIG. 22C)
  Inhibition of gamma secretase activity: dose-dependent inhibition of gamma secretase activity
Gamma secretase [4]; 24 hours treatment, flow cytometry of surface BCMA, read-out: EC50 on gamma secretase (surface BCMA) determined using the Molp-8 cell line
  EC50: 22.4 nM
BCMA-negative REH cells
  Dose-dependent increase of BCMA on the cell surface: not seen
[5]
  Effect on target cell killing by BCMA CAR-T cells: enhanced target cell killing was not observed
